Reference: patent US20070048356A1, “Antimicrobial treatment of nonwoven materials for infection control” (priority 2005, published 2007)

System: S. aureus (ATCC 6538)
Assay: Dynamic Shake Flask (based on ASTM E 2149-01) on treated nonwoven
Assay type: cell-based

In the case of Polyhexamethylene biguanide [PHMB], the “Dynamic Shake Flask Log10 Reduction” value (Table 12, Meltblown, contact time 1 min) was 4 Log10, the “Dynamic Shake Flask Log10 Reduction” value (Table 12, Meltblown, contact time 5 min) was 4 Log10 and the “Dynamic Shake Flask Log10 Reduction” value (Table 12, Meltblown, contact time 15 min) was 4 Log10. The “Dynamic Shake Flask Log10 Reduction” value (Table 12, SMS, contact time 1 min) was 4 Log10, the “Dynamic Shake Flask Log10 Reduction” value (Table 12, SMS, contact time 5 min) was 4 Log10 and the “Dynamic Shake Flask Log10 Reduction” value (Table 12, SMS, contact time 15 min) was 4 Log10. The “Dynamic Shake Flask Log10 Reduction” value (Table 12, Spunbond, contact time 1 min) was 4 Log10, the “Dynamic Shake Flask Log10 Reduction” value (Table 12, Spunbond, contact time 5 min) was 4 Log10 and the “Dynamic Shake Flask Log10 Reduction” value (Table 12, Spunbond, contact time 15 min) was 4 Log10. For the same substance, the “Dynamic Shake Flask Log10 Reduction” value (Table 16, Spunbond substrate, contact time 1 min, listed as 0.5% PHMB) was 2.31 Log10, the “Dynamic Shake Flask Log10 Reduction” value (Table 16, Spunbond substrate, contact time 1 min, listed as 1.0% PHMB) was 4.00 Log10 and the “Dynamic Shake Flask Log10 Reduction” value (Table 16, Spunbond substrate, contact time 5 min) was 4.00 Log10. For the same substance, the “Dynamic Shake Flask Log10 Reduction” value (Table 16, Spunbond substrate, contact time 15 min) was 4.00 Log10, the “Dynamic Shake Flask Log10 Reduction” value (Table 17, Spunbond substrate, contact time 1 min) was 0.18 Log10 and the “Dynamic Shake Flask Log10 Reduction” value (Table 17, Spunbond substrate, contact time 5 min) was 0.33 Log10. The “Dynamic Shake Flask Log10 Reduction” value (Table 17, Spunbond substrate, contact time 15 min) was 0.58 Log10, the “Dynamic Shake Flask Log10 Reduction” value (Table 19, SMS substrate, contact time 1 min) was 0.18 Log10 and the “Dynamic Shake Flask Log10 Reduction” value (Table 19, SMS substrate, contact time 5 min) was 0.33 Log10. For the same substance, the “Dynamic Shake Flask Log10 Reduction” value (Table 19, SMS substrate, contact time 15 min) was 0.58 Log10.
